Measurements: US11713338B2, “Cyclic peptides multimers targeting α-4-β-7 integrin” (priority 2016, dated 2023)

Target: T1, integrin α4β7 on α4β7+ memory T helper cells (Homo sapiens, UniProt P13612+P26010)
T1 construct: endogenous in cells
T1 sequence (P13612 34-1032): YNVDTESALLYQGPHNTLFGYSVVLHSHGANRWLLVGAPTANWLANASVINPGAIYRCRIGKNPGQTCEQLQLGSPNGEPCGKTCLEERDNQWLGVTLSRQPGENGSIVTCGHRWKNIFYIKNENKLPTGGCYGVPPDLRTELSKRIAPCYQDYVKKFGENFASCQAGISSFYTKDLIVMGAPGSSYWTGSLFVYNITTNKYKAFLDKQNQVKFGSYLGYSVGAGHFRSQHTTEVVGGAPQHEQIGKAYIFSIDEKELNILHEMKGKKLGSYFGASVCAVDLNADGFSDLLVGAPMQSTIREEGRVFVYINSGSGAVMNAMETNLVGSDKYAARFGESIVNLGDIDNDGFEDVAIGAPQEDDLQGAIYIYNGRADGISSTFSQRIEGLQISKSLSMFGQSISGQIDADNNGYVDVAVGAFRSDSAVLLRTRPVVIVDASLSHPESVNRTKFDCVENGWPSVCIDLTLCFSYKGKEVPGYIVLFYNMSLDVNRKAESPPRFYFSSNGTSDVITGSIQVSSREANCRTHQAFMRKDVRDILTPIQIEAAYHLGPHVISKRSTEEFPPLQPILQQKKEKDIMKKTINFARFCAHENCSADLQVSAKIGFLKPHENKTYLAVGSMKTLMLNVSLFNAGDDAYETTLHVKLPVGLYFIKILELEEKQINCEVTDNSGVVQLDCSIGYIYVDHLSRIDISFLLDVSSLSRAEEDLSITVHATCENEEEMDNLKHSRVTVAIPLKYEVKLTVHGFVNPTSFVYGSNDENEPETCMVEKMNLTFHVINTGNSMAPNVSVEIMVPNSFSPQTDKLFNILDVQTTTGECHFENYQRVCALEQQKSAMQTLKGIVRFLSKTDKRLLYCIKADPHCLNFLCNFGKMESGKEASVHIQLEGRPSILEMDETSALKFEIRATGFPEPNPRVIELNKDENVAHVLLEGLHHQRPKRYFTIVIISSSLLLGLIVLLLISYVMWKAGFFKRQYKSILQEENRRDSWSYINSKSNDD
T1 sequence (P26010 20-798): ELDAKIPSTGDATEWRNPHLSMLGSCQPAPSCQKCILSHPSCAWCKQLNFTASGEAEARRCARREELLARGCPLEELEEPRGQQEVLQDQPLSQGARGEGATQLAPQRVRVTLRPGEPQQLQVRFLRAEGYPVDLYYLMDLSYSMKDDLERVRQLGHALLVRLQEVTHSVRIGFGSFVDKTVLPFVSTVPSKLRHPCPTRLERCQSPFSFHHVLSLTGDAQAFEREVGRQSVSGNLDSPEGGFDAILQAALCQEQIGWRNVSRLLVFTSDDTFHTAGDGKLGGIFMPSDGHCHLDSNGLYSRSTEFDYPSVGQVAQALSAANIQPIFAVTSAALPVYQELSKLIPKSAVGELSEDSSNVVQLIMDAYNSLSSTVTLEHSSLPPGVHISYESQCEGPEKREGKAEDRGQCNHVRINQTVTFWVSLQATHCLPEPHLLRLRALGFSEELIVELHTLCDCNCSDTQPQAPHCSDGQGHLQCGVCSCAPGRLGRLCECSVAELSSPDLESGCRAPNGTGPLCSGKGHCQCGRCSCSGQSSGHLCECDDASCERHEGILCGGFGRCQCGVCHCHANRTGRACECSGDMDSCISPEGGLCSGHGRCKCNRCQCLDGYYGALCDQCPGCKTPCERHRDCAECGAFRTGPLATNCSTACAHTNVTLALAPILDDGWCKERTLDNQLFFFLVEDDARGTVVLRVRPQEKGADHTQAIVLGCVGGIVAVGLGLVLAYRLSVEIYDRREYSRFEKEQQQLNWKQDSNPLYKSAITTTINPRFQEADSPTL
Test: MAdCAM-1 competition / receptor occupancy assay in human whole blood, α4β7-positive Th memory cells
Type: cell-based
Details: human whole blood, FIG. 7; read-out: IC50, MAdCAM-1 competition on α4β7-positive primary cells
Protocol: Analyte Competition Assay in CD4+ Integrin α4+β7-Lo Memory T Cells
Receptor occupancy in primary cells was determined by measuring the amount of biotinylated human recombinant MAdCAM-1-FC or human recombinant VCAM-1-Fc bound to selected cell populations using flow cytometry. Human recombinant MAdCAM-1-FC or human recombinant VCAM-1-FC (R&D systems) were biotinylated using commercially available reagents and protocol (Pierce).
Whole blood was collected from human donors in sodium heparin tubes. […] Cells were washed twice with 1 mL of 1X DPBS calcium magnesium free (CMF) (ThermoFisher Scientific) and resuspended in 100 microL of DPBS CMF.
Biotinylated human recombinant MAdCAM-1-Fc or VCAM-1-Fc were added at saturating concentration and incubated at room temperature for 1 hour. […] Cells were washed with 1 mL stain buffer-FBS (BD Biosciences) and resuspended in 100 μl stain Buffer-FBS (BD Biosciences) containing 4 mM MnCl2. […] Cells were then washed with 1 mL stain buffer-FBS and resuspended in […] stain buffer-FBS. The cells were incubated in the dark for 30 minutes at room temperature with 1 ul Streptavidin APC (Biolegend 0.2 mg/ml) and a panel of antibodies for the detection of memory T helper a4b7-positive cells subset. And amount of 5.0 ul each of the following antibodies were used; CD45 FITC (BioLegend 200 ug/ml), CD29 APC Cy7 (BioLegend 100 ug/ml), Integrin beta7 PE, (BioLegend concentration 50 μg/mL), CD49d V421 (BioLegend 50 μg/mL), CD3 V510 (BioLegend 30 μg/mL), CD4 PECy7 (BioLegend 100 μg/mL), CD45RO PerCP, BioLegend 200 μg/mL). The cells were then washed with stain-buffer-FBS and resuspended in 150 microL stain buffer-FBS for acquisition on the flow cytometer (BD FACSCanto™ flow cytometer and BDFACSDiva™ software). FACS data was acquire by electronic gating on the basis of forward versus side scatter, The cytometer was set to collect 20,000 events in each tube. Cell population were determined using the following markers, CD45+, CD3+, CD4+, CD45RO+, CD49d+, integrin b7, biotinylated ligands.
Compound receptor occupancy was defined as the decrease in the number of integrin β7+ or integrin β7-lo cells binding biotinylated rhMAdCAM-1 or rhVCAM-1, respectively.
Receptor occupancy was calculated with the following equation: 100−((% ligand-positive cells with compound/% ligand-positive cells DMSO)*100) In Vivo T Lymphocyte Trafficking Analysis in Mouse Model of Colitis

| SMILES | IC50 [nM] |
| --- | --- |
| CC(C)C[C@@H]1NC(=O)C[C@H](CCCCN)N(C)C(=O)[C@H](CCCCNC(=O)c2ccccc2-c2ccccc2C(=O)NCCCC[C@@H]2NC(=O)[C@@H]3CCCN3[C@H](C(=O)NC(C)(C)C)[C@H](C)NC(=O)[C@H]([C@@H](C)O)NC(=O)[C@H](CC(=O)O)NC(=O)[C@H](CC(C)C)NC(=O)C[C@H](CCCCN)N(C)C2=O)NC(=O)[C@@H]2CCCN2[C@H](C(=O)NC(C)(C)C)[C@H](C)NC(=O)[C@H]([C@@H](C)O)NC(=O)[C@H](CC(=O)O)NC1=O [Compound 535] | 76 |

Same assay, conditions: human whole blood, inhibition of MAdCAM-1 binding to α4β7-positive Th memory cells, FACS; read-out: MADCAM FACS α4β7 Th mem

| SMILES | IC50 [nM] |
| --- | --- |
| CC(C)C[C@@H]1NC(=O)c2ccc(-c3ccc(N4CCN(C(=O)C[C@@H](N)C(=O)N5CCN(c6ccc(-c7ccc8cc7CNC(=O)[C@@H]7CCCN7[C@H](C(=O)NC(C)(C)C)[C@H](C)NC(=O)[C@H]([C@@H](C)O)NC(=O)[C@H](CC(=O)O)NC(=O)[C@H](CC(C)C)NC8=O)cc6)CC5)CC4)cc3)c(c2)CNC(=O)[C@@H]2CCCN2[C@H](C(=O)NC(C)(C)C)[C@H](C)NC(=O)[C@H]([C@@H](C)O)NC(=O)[C@H](CC(=O)O)NC1=O [Compound 493] | 94 |
| CC(C)C[C@@H]1NC(=O)c2ccc(-c3ccc(N4CCN(C(=O)c5ccc(C(=O)N6CCN(c7ccc(-c8ccc9cc8CNC(=O)[C@@H]8CCCN8[C@H](C(=O)NC(C)(C)C)[C@H](C)NC(=O)[C@H]([C@@H](C)O)NC(=O)[C@H](CC(=O)O)NC(=O)[C@H](CC(C)C)NC9=O)cc7)CC6)s5)CC4)cc3)c(c2)CNC(=O)[C@@H]2CCCN2[C@H](C(=O)NC(C)(C)C)[C@H](C)NC(=O)[C@H]([C@@H](C)O)NC(=O)[C@H](CC(=O)O)NC1=O [Compound 470] | 81 |
| CC(C)C[C@@H]1NC(=O)c2ccc(-c3ccc(N4CCN(C(=O)C56CC7CC(C5)CC(C(=O)N5CCN(c8ccc(-c9ccc%10cc9CNC(=O)[C@@H]9CCCN9[C@H](C(=O)NC(C)(C)C)[C@H](C)NC(=O)[C@H]([C@@H](C)O)NC(=O)[C@H](CC(=O)O)NC(=O)[C@H](CC(C)C)NC%10=O)cc8)CC5)(C7)C6)CC4)cc3)c(c2)CNC(=O)[C@@H]2CCCN2[C@H](C(=O)NC(C)(C)C)[C@H](C)NC(=O)[C@H]([C@@H](C)O)NC(=O)[C@H](CC(=O)O)NC1=O [Compound 460] | 107 |
| CC(C)C[C@@H]1NC(=O)C[C@H](CCCCN)N(C)C(=O)[C@H](CCCCNC(=O)c2ccccc2-c2ccccc2C(=O)NCCCC[C@@H]2NC(=O)[C@@H]3CCCN3[C@H](C(=O)NC(C)(C)C)[C@H](C)NC(=O)[C@H]([C@@H](C)O)NC(=O)[C@H](CC(=O)O)NC(=O)[C@H](CC(C)C)NC(=O)C[C@H](CCCCN)N(C)C2=O)NC(=O)[C@@H]2CCCN2[C@H](C(=O)NC(C)(C)C)[C@H](C)NC(=O)[C@H]([C@@H](C)O)NC(=O)[C@H](CC(=O)O)NC1=O [Compound 535] | 77 |
| COc1cc(C(=O)N2CCN(c3ccc(-c4ccc5cc4CNC(=O)[C@@H]4CCCN4[C@H](C(=O)NC(C)(C)C)[C@H](C)NC(=O)[C@H]([C@@H](C)O)NC(=O)[C@H](CC(=O)O)NC(=O)[C@H](CC(C)C)NC5=O)cc3)CC2)cc(-c2ccc(C(=O)N3CCN(c4ccc(-c5ccc6cc5CNC(=O)[C@@H]5CCCN5[C@H](C(=O)NC(C)(C)C)[C@H](C)NC(=O)[C@H]([C@@H](C)O)NC(=O)[C@H](CC(=O)O)NC(=O)[C@H](CC(C)C)NC6=O)cc4)CC3)cc2F)c1 [Compound 464] | 232 |
| CC(C)C[C@@H]1NC(=O)c2ccc(-c3ccc(N4CCN(C(=O)c5cc(C(=O)N6CCN(c7ccc(-c8ccc9cc8CNC(=O)[C@@H]8CCCN8[C@H](C(=O)NC(C)(C)C)[C@H](C)NC(=O)[C@H]([C@@H](C)O)NC(=O)[C@H](CC(=O)O)NC(=O)[C@H](CC(C)C)NC9=O)cc7)CC6)cc(C(=O)N6CCN(c7ccc(-c8ccc9cc8CNC(=O)[C@@H]8CCCN8[C@H](C(=O)NC(C)(C)C)[C@H](C)NC(=O)[C@H]([C@@H](C)O)NC(=O)[C@H](CC(=O)O)NC(=O)[C@H](CC(C)C)NC9=O)cc7)CC6)c5)CC4)cc3)c(c2)CNC(=O)[C@@H]2CCCN2[C@H](C(=O)NC(C)(C)C)[C@H](C)NC(=O)[C@H]([C@@H](C)O)NC(=O)[C@H](CC(=O)O)NC1=O [Compound 520] | 1.2 |
| CC(C)C[C@@H]1NC(=O)c2ccc(-c3ccc(N4CCN(C(=O)c5ccc(-c6cccc(C(=O)N7CCN(c8ccc(-c9ccc%10cc9CNC(=O)[C@@H]9CCCN9[C@H](C(=O)NC(C)(C)C)[C@H](C)NC(=O)[C@H]([C@@H](C)O)NC(=O)[C@H](CC(=O)O)NC(=O)[C@H](CC(C)C)NC%10=O)cc8)CC7)n6)nc5)CC4)cc3)c(c2)CNC(=O)[C@@H]2CCCN2[C@H](C(=O)NC(C)(C)C)[C@H](C)NC(=O)[C@H]([C@@H](C)O)NC(=O)[C@H](CC(=O)O)NC1=O [Compound 466] | 164 |
| CC(C)C[C@@H]1NC(=O)c2ccc(-c3ccc(N4CCN(CC(=O)N5CCN(c6ccc(-c7ccc8cc7CNC(=O)[C@@H]7CCCN7[C@H](C(=O)NC(C)(C)C)[C@H](C)NC(=O)[C@H]([C@@H](C)O)NC(=O)[C@H](CC(=O)O)NC(=O)[C@H](CC(C)C)NC8=O)cc6)CC5)CC4)cc3)c(c2)CNC(=O)[C@@H]2CCCN2[C@H](C(=O)NC(C)(C)C)[C@H](C)NC(=O)[C@H]([C@@H](C)O)NC(=O)[C@H](CC(=O)O)NC1=O [Compound 481] | 67 |
| CC(C)C[C@@H]1NC(=O)C[C@H](CCCCN)N(C)C(=O)[C@H](CCCCNC(=O)CCCCCCCC(=O)NCCCC[C@@H]2NC(=O)[C@@H]3CCCN3[C@H](C(=O)NC(C)(C)C)[C@H](C)NC(=O)[C@H]([C@@H](C)O)NC(=O)[C@H](CC(=O)O)NC(=O)[C@H](CC(C)C)NC(=O)C[C@H](CCCCN)N(C)C2=O)NC(=O)[C@@H]2CCCN2[C@H](C(=O)NC(C)(C)C)[C@H](C)NC(=O)[C@H]([C@@H](C)O)NC(=O)[C@H](CC(=O)O)NC1=O [Compound 533] | 46 |
| CC(C)C[C@@H]1NC(=O)c2ccc(-c3ccc(N4CCN(C(=O)c5cc(F)ccc5-c5ccc(F)cc5C(=O)N5CCN(c6ccc(-c7ccc8cc7CNC(=O)[C@@H]7CCCN7[C@H](C(=O)NC(C)(C)C)[C@H](C)NC(=O)[C@H]([C@@H](C)O)NC(=O)[C@H](CC(=O)O)NC(=O)[C@H](CC(C)C)NC8=O)cc6)CC5)CC4)cc3)c(c2)CNC(=O)[C@@H]2CCCN2[C@H](C(=O)NC(C)(C)C)[C@H](C)NC(=O)[C@H]([C@@H](C)O)NC(=O)[C@H](CC(=O)O)NC1=O [Compound 475] | 74 |
